Source: ChEMBL document CHEMBL1777782, “Indole 5-carboxamide Thumb Pocket I inhibitors of HCV NS5B polymerase with nanomolar potency in cell-based subgenomic replicons (part 2): central amino acid linker and right-hand-side SAR studies” (Bioorg Med Chem Lett, 2011)
pEC50, pIC50: −log10 of the molar value. Converted amounts (≈) assume the structure as drawn.

Molecular target: not listed separately
Assay: Inhibition of HCV 1b NS5B RNA dependent RNA polymerase by scintillation proximity assay
Parameters: species or system Hepacivirus hominis
Settings: not given

**Q.** With `Cc1c(C(=O)O)sc2ccc(NC(=O)C3(NC(=O)c4ccc5c(C6CCCCC6)c(-c6ccccn6)n(C)c5c4)CCN(C)CC3)cc12` as the molecule, how does the pIC50 read?
**A.** 7.57

**Q.** With `Cn1c(-c2ccccn2)c(C2CCCCC2)c2ccc(C(=O)N[C@]3(C(=O)Nc4ccc(/C=C/C(=O)O)cc4)CCNC3)cc21` as the molecule, how does the pIC50 read?
**A.** 7.26

**Q.** With `Cn1c(-c2ccccn2)c(C2CCCCC2)c2ccc(C(=O)NC(C)(C)C(=O)Nc3ccc(NC(=O)C(N)=O)cc3)cc21` as the molecule, how does the pIC50 read?
**A.** 6.91

**Q.** With `Cn1c(-c2ccccn2)c(C2CCCCC2)c2ccc(C(=O)NC3(C(=O)Nc4ccc(-c5cnc(N)nc5)cc4)CCC3)cc21` as the molecule, how does the pIC50 read?
**A.** 6.13

**Q.** With `CN1CCC(NC(=O)c2ccc3c(C4CCCCC4)c(-c4ccccn4)n(C)c3c2)(C(=O)Nc2ccc3sc(C(=O)O)cc3c2)CC1` as the molecule, how does the pIC50 read?
**A.** 7.77

**Q.** With `CC(=O)N1CC[C@@](NC(=O)c2ccc3c(C4CCCCC4)c(-c4ccccn4)n(C)c3c2)(C(=O)Nc2ccc(/C=C/C(=O)O)cc2)C1` as the molecule, how does the pIC50 read?
**A.** 7.62

**Q.** With `Cn1c(-c2ccccn2)c(C2CCCCC2)c2ccc(C(=O)NC3(C(=O)Nc4ccc(/C=C/C(=O)O)cc4)CCOCC3)cc21` as the molecule, how does the pIC50 read?
**A.** 7.17

**Q.** With `Cn1c(C(N)=O)cc2cc(NC(=O)C(C)(C)NC(=O)c3ccc4c(C5CCCCC5)c(-c5ccccn5)n(C)c4c3)ccc21` as the molecule, how does the pIC50 read?
**A.** 6.78

Tested on: Hepatitis C virus
Assay: Antiviral activity against Hepatitis C virus genotype 1b infected in human Huh-7 cells assessed as inhibition of viral replication after 72 hrs
Assay type: functional, organism-based, Hepacivirus hominis
Settings: Huh-7, 72 h

**Q.** With `Cc1c(C(=O)O)sc2ccc(NC(=O)C3(NC(=O)c4ccc5c(C6CCCCC6)c(-c6ccccn6)n(C)c5c4)CCN(C)CC3)cc12` as the molecule, how does the pEC50 read?
**A.** 7.24

**Q.** With `Cn1c(-c2ccccn2)c(C2CCCCC2)c2ccc(C(=O)N[C@]3(C(=O)Nc4ccc(/C=C/C(=O)O)cc4)CCNC3)cc21` as the molecule, how does the pEC50 read?
**A.** 6.71

**Q.** With `Cn1c(-c2ccccn2)c(C2CCCCC2)c2ccc(C(=O)NC(C)(C)C(=O)Nc3ccc(NC(=O)C(N)=O)cc3)cc21` as the molecule, how does the pEC50 read?
**A.** 6.86

**Q.** With `Cn1c(-c2ccccn2)c(C2CCCCC2)c2ccc(C(=O)NC3(C(=O)Nc4ccc(-c5cnc(N)nc5)cc4)CCC3)cc21` as the molecule, how does the pEC50 read?
**A.** 6.74

**Q.** With `CN1CCC(NC(=O)c2ccc3c(C4CCCCC4)c(-c4ccccn4)n(C)c3c2)(C(=O)Nc2ccc3sc(C(=O)O)cc3c2)CC1` as the molecule, how does the pEC50 read?
**A.** 6.66

**Q.** With `CC(=O)N1CC[C@@](NC(=O)c2ccc3c(C4CCCCC4)c(-c4ccccn4)n(C)c3c2)(C(=O)Nc2ccc(/C=C/C(=O)O)cc2)C1` as the molecule, how does the pEC50 read?
**A.** 6.67

**Q.** With `Cn1c(-c2ccccn2)c(C2CCCCC2)c2ccc(C(=O)NC3(C(=O)Nc4ccc(/C=C/C(=O)O)cc4)CCOCC3)cc21` as the molecule, how does the pEC50 read?
**A.** 6.77

**Q.** With `Cn1c(C(N)=O)cc2cc(NC(=O)C(C)(C)NC(=O)c3ccc4c(C5CCCCC5)c(-c5ccccn5)n(C)c4c3)ccc21` as the molecule, how does the pEC50 read?
**A.** 7.01

Tested on: not listed separately
Assay: Half life in human liver microsomes at 10 uM
Settings: liver microsomes

**Q.** Which half-life at 10 µM does the source give for `Cc1c(C(=O)O)sc2ccc(NC(=O)C3(NC(=O)c4ccc5c(C6CCCCC6)c(-c6ccccn6)n(C)c5c4)CCN(C)CC3)cc12` here?
**A.** 185 min

**Q.** Which half-life at 10 µM does the source give for `Cn1c(-c2ccccn2)c(C2CCCCC2)c2ccc(C(=O)N[C@]3(C(=O)Nc4ccc(/C=C/C(=O)O)cc4)CCNC3)cc21` here?
**A.** 191 min

**Q.** For `Cn1c(-c2ccccn2)c(C2CCCCC2)c2ccc(C(=O)NC(C)(C)C(=O)Nc3ccc(NC(=O)C(N)=O)cc3)cc21`, which half-life at 10 µM is on record?
**A.** 25 min

**Q.** With `Cn1c(-c2ccccn2)c(C2CCCCC2)c2ccc(C(=O)NC3(C(=O)Nc4ccc(/C=C/C(=O)O)cc4)CCOCC3)cc21` as the molecule, how does the half-life at 10 µM read?
**A.** 41 min

**Q.** Which half-life at 10 µM does the source give for `Cn1c(C(N)=O)cc2cc(NC(=O)C(C)(C)NC(=O)c3ccc4c(C5CCCCC5)c(-c5ccccn5)n(C)c4c3)ccc21` here?
**A.** 21 min

Tested on: not listed separately
Assay: Permeability across apical to basolateral side in human Caco2 cells
Settings: Caco-2

**Q.** For `Cc1c(C(=O)O)sc2ccc(NC(=O)C3(NC(=O)c4ccc5c(C6CCCCC6)c(-c6ccccn6)n(C)c5c4)CCN(C)CC3)cc12`, which Papp A→B is on record?
**A.** 0.8 ×10⁻⁶ cm/s

**Q.** For `Cn1c(-c2ccccn2)c(C2CCCCC2)c2ccc(C(=O)N[C@]3(C(=O)Nc4ccc(/C=C/C(=O)O)cc4)CCNC3)cc21`, which Papp A→B is on record?
**A.** 0.1 ×10⁻⁶ cm/s

**Q.** Which Papp A→B does the source give for `Cn1c(-c2ccccn2)c(C2CCCCC2)c2ccc(C(=O)NC(C)(C)C(=O)Nc3ccc(NC(=O)C(N)=O)cc3)cc21` here?
**A.** 12.9 ×10⁻⁶ cm/s

**Q.** Which Papp A→B does the source give for `Cn1c(-c2ccccn2)c(C2CCCCC2)c2ccc(C(=O)NC3(C(=O)Nc4ccc(/C=C/C(=O)O)cc4)CCOCC3)cc21` here?
**A.** 5.7 ×10⁻⁶ cm/s

Tested on: not listed separately
Assay: Selectivity ratio for polio virus RNA-dependent RNA polymerase to HCV 1b NS5B RNA dependent RNA polymerase
Settings: not given

**Q.** Which Ratio does the source give for `Cc1c(C(=O)O)sc2ccc(NC(=O)C3(NC(=O)c4ccc5c(C6CCCCC6)c(-c6ccccn6)n(C)c5c4)CCN(C)CC3)cc12` here?
**A.** > 150

**Q.** With `Cn1c(-c2ccccn2)c(C2CCCCC2)c2ccc(C(=O)N[C@]3(C(=O)Nc4ccc(/C=C/C(=O)O)cc4)CCNC3)cc21` as the molecule, how does the Ratio read?
**A.** > 150

**Q.** With `Cn1c(-c2ccccn2)c(C2CCCCC2)c2ccc(C(=O)NC(C)(C)C(=O)Nc3ccc(NC(=O)C(N)=O)cc3)cc21` as the molecule, how does the Ratio read?
**A.** > 150

**Q.** With `Cn1c(-c2ccccn2)c(C2CCCCC2)c2ccc(C(=O)NC3(C(=O)Nc4ccc(-c5cnc(N)nc5)cc4)CCC3)cc21` as the molecule, how does the Ratio read?
**A.** > 150

**Q.** Which Ratio does the source give for `CN1CCC(NC(=O)c2ccc3c(C4CCCCC4)c(-c4ccccn4)n(C)c3c2)(C(=O)Nc2ccc3sc(C(=O)O)cc3c2)CC1` here?
**A.** > 150

**Q.** With `CC(=O)N1CC[C@@](NC(=O)c2ccc3c(C4CCCCC4)c(-c4ccccn4)n(C)c3c2)(C(=O)Nc2ccc(/C=C/C(=O)O)cc2)C1` as the molecule, how does the Ratio read?
**A.** > 150

**Q.** Which Ratio does the source give for `Cn1c(-c2ccccn2)c(C2CCCCC2)c2ccc(C(=O)NC3(C(=O)Nc4ccc(/C=C/C(=O)O)cc4)CCOCC3)cc21` here?
**A.** > 150

**Q.** For `Cn1c(C(N)=O)cc2cc(NC(=O)C(C)(C)NC(=O)c3ccc4c(C5CCCCC5)c(-c5ccccn5)n(C)c4c3)ccc21`, which Ratio is on record?
**A.** > 150

Tested on: not listed separately
Assay: Selectivity ratio for mammalian DNA-dependent RNA polymerase II to HCV 1b NS5B RNA dependent RNA polymerase
Settings: not given

**Q.** For `Cc1c(C(=O)O)sc2ccc(NC(=O)C3(NC(=O)c4ccc5c(C6CCCCC6)c(-c6ccccn6)n(C)c5c4)CCN(C)CC3)cc12`, which Ratio is on record?
**A.** > 150

**Q.** For `Cn1c(-c2ccccn2)c(C2CCCCC2)c2ccc(C(=O)N[C@]3(C(=O)Nc4ccc(/C=C/C(=O)O)cc4)CCNC3)cc21`, which Ratio is on record?
**A.** > 150

**Q.** With `Cn1c(-c2ccccn2)c(C2CCCCC2)c2ccc(C(=O)NC(C)(C)C(=O)Nc3ccc(NC(=O)C(N)=O)cc3)cc21` as the molecule, how does the Ratio read?
**A.** > 150

**Q.** For `Cn1c(-c2ccccn2)c(C2CCCCC2)c2ccc(C(=O)NC3(C(=O)Nc4ccc(-c5cnc(N)nc5)cc4)CCC3)cc21`, which Ratio is on record?
**A.** > 150

**Q.** For `CN1CCC(NC(=O)c2ccc3c(C4CCCCC4)c(-c4ccccn4)n(C)c3c2)(C(=O)Nc2ccc3sc(C(=O)O)cc3c2)CC1`, which Ratio is on record?
**A.** > 150

**Q.** With `CC(=O)N1CC[C@@](NC(=O)c2ccc3c(C4CCCCC4)c(-c4ccccn4)n(C)c3c2)(C(=O)Nc2ccc(/C=C/C(=O)O)cc2)C1` as the molecule, how does the Ratio read?
**A.** > 150

**Q.** Which Ratio does the source give for `Cn1c(-c2ccccn2)c(C2CCCCC2)c2ccc(C(=O)NC3(C(=O)Nc4ccc(/C=C/C(=O)O)cc4)CCOCC3)cc21` here?
**A.** > 150

**Q.** With `Cn1c(C(N)=O)cc2cc(NC(=O)C(C)(C)NC(=O)c3ccc4c(C5CCCCC5)c(-c5ccccn5)n(C)c4c3)ccc21` as the molecule, how does the Ratio read?
**A.** > 150

Tested on: not listed separately
Assay: physchem
Settings: phosphate buffer, pH 7.2

**Q.** With `Cc1c(C(=O)O)sc2ccc(NC(=O)C3(NC(=O)c4ccc5c(C6CCCCC6)c(-c6ccccn6)n(C)c5c4)CCN(C)CC3)cc12` as the molecule, how does the solubility thermodynamic at 24 h read?
**A.** 1 µg/mL (≈ 1.51 µM)

**Q.** For `Cn1c(-c2ccccn2)c(C2CCCCC2)c2ccc(C(=O)N[C@]3(C(=O)Nc4ccc(/C=C/C(=O)O)cc4)CCNC3)cc21`, which solubility thermodynamic at 24 h is on record?
**A.** 19 µg/mL (≈ 32.1 µM)

**Q.** With `Cn1c(-c2ccccn2)c(C2CCCCC2)c2ccc(C(=O)NC(C)(C)C(=O)Nc3ccc(NC(=O)C(N)=O)cc3)cc21` as the molecule, how does the solubility thermodynamic at 24 h read?
**A.** 1 µg/mL (≈ 1.72 µM)

**Q.** With `Cn1c(-c2ccccn2)c(C2CCCCC2)c2ccc(C(=O)NC3(C(=O)Nc4ccc(-c5cnc(N)nc5)cc4)CCC3)cc21` as the molecule, how does the solubility thermodynamic at 24 h read?
**A.** 0.9 µg/mL (≈ 1.5 µM)

**Q.** Which solubility thermodynamic at 24 h does the source give for `Cn1c(-c2ccccn2)c(C2CCCCC2)c2ccc(C(=O)NC3(C(=O)Nc4ccc(/C=C/C(=O)O)cc4)CCOCC3)cc21` here?
**A.** 15 µg/mL (≈ 24.7 µM)

**Q.** Which solubility thermodynamic at 24 h does the source give for `Cn1c(C(N)=O)cc2cc(NC(=O)C(C)(C)NC(=O)c3ccc4c(C5CCCCC5)c(-c5ccccn5)n(C)c4c3)ccc21` here?
**A.** < 0.1 µg/mL
